Measured values published in patent US20240279283A1, “CYCLIC PEPTIDE ANTIBIOTICS” (priority 2021, published 2024).
Bridge positions count the residues as written; N and C are the ends. Square brackets hold non-standard residues; d marks the D form. Peptide text beside a SMILES is read from it. Phe(4-Cl) = N[C@@H](Cc1ccc(Cl)cc1)C(=O)O; 1Nal = N[C@@H](Cc1cccc2ccccc12)C(=O)O; His(π-Me) = Cn1cncc1C[C@H](N)C(=O)O; NMeF = CN[C@@H](Cc1ccccc1)C(=O)O; Abu = CC[C@H](N)C(=O)O; Aib = CC(C)(N)C(=O)O

How the values were obtained:
E. coli BW25113 = assay: Minimum Inhibitory Concentration (MIC) determination, E. coli BW25113; format: cell-based; design: unit not given here; details: LB broth, 5×10^5 CFU/ml, 37° C., 18 hours, scored by eye
Procedure: (§1) MICs were determined by performing two-fold serial dilutions of peptides in LB broth to a final volume of 0.1 ml in round-bottom 96-well assay plates (Corning Life Sciences No 3788). Peptides were initially resuspended in 100% DMSO to 10 mM and subsequently diluted in LB medium to the appropriate concentration. Each well was inoculated with 5×10^5 CFU/ml of the screening stain and incubated at 37° C. without agitation for 18 hours. Plates were scored by eye, and the lowest compound concentration preventing visible growth was determined to be the MIC.

E. coli 25922 IMP = assay: Minimum Inhibitory Concentration (MIC) determination, E. coli 25922 IMP; format: cell-based; details: LB broth, 5×10^5 CFU/ml, 37° C., 18 hours, scored by eye
Procedure: as §1

| SMILES | MIC E. coli BW25113 WUXI::MIC (E. coli BW25113) | MIC E. coli 25922 IMP WUXI::MIC (E. coli 25922 IMP) |
| --- | --- | --- |
| CC[C@@H]1NC(=O)[C@H](Cc2ccccc2)NC(=O)CSC[C@@H](C(=O)NCC(N)=O)NC(=O)[C@H](Cc2cncn2C)NC(=O)[C@H](CCCNC(=N)N)NC(=O)[C@H](Cc2cnc[nH]2)NC(=O)[C@H](Cc2ccccc2)N(C)C(=O)[C@H](CCCNC(=N)N)NC(=O)[C@H](CO)NC(=O)CN(C)C(=O)[C@H](Cc2cnc[nH]2)NC(=O)[C@H](Cc2c[nH]c3ccccc23)NC1=O (racemic) [Compound 11, rac-(3R,6S,9S,12S,15S,18S,21S,27S,30S, 33S,36S)-N-(2-amino-2-oxo-ethyl)-15,36-dibenzyl-33-ethyl-9,18-bis(3-guanidinopropyl)-21-(hydroxymethyl)-12,27-bis(1H-imidazol-5-ylmethyl)-30-(1H-indol-3-ylmethyl)-16,25-dimethyl-6-[(3-methylimidazol-4-yl)methyl]-5,8,11,14,17,20,23,26,29,32,35,38-dodecaoxo-1-thia-4,7,10,13,16,19,22,25,28,31,34,37-dodecazacyclononatriacontane-3-carboxamide] | 8 | 1.9074E−06 |
| CC[C@@H]1NC(=O)[C@H](Cc2ccccc2)NC(=O)CSC[C@@H](C(=O)NCC(N)=O)NC(=O)[C@H](Cc2cncn2C)NC(=O)[C@H](CC)NC(=O)[C@H](Cc2c[nH]cn2)NC(=O)[C@H](Cc2ccccc2)N(C)C(=O)[C@H](CCCNC(=N)N)NC(=O)[C@H](CO)NC(=O)CNC(=O)[C@H](Cc2c[nH]cn2)NC(=O)[C@H](Cc2cccc3ccccc23)NC1=O [Compound 5, (3R,6S,9S,12S,15S,18S,21S,27S,30S, 33S,36S)-N-(2-amino-2-oxo-ethyl)-15,36-dibenzyl-9,33-diethyl-18-(3-guanidinopropyl)-21-(hydroxymethyl)-12,27-bis(1H-imidazol-4-ylmethyl)-16-methyl-6-[(3-methylimidazol-4-yl)methyl]-30-(1-naphthylmethyl)-5,8,11,14,17,20,23,26,29,32,35,38-dodecaoxo-1-thia-4,7,10,13,16,19,22,25,28,31,34,37-dodecazacyclononatriacontane-3-carboxamide] ({CH2CO}-F[Abu][1Nal]HGSR[NMeF]H[Abu][His(π-Me)]CG-NH2; thioether N-12) | >32 | 0.016 |
| CC[C@H](C)[C@@H]1NC(=O)C(C)(C)NC(=O)[C@H](Cc2cncn2C)NC(=O)[C@H](Cc2ccccc2)NC(=O)CSC[C@@H](C(=O)NCC(N)=O)NC(=O)[C@H](Cc2ccc(O)cc2)NC(=O)[C@H](Cc2c[nH]c3ccccc23)NC(=O)[C@H](Cc2ccc(O)cc2)NC(=O)[C@H](Cc2cncn2C)NC(=O)[C@H](Cc2ccccc2)NC(=O)C(C)(C)NC(=O)[C@H](CCCNC(=N)N)NC(=O)[C@H](CCCCN)NC(=O)[C@H](CCCNC(=N)N)NC1=O [Compound 56] ({CH2CO}-F[His(π-Me)][Aib]IRKR[Aib]F[His(π-Me)]YWYCG-NH2; thioether N-14) | >32 | 8 |
| CC(C)[C@@H]1NC(=O)[C@H](Cc2ccccc2)NC(=O)CSC[C@@H](C(=O)NCC(N)=O)NC(=O)[C@H](Cc2cncn2C)NC(=O)[C@H](CCCNC(=N)N)NC(=O)[C@H](Cc2cnc[nH]2)NC(=O)[C@H](Cc2ccccc2)N(C)C(=O)[C@H](CCCNC(=N)N)NC(=O)[C@H](CO)NC(=O)CNC(=O)[C@H](Cc2cnc[nH]2)NC(=O)[C@H](Cc2c[nH]c3ccccc23)NC1=O (racemic) [Compound 9, rac-(3R,6S,9S,12S,15S,18S,21S,27S,30S, 33S,36S)-N-(2-amino-2-oxo-ethyl)-15,36-dibenzyl-9,18-bis(3-guanidinopropyl)-21-(hydroxymethyl)-12,27-bis(1H-imidazol-5-ylmethyl)-30-(1H-indol-3-ylmethyl)-33-isopropyl-16-methyl-6-[(3-methylimidazol-4-yl)methyl]-5,8,11,14,17,20,23,26,29,32,35,38-dodecaoxo-1-thia-4,7,10,13,16,19,22,25,28,31,34,37-dodecazacyclononatriacontane-3-carboxamide] | 8 | 9.5367E−07 |
| CC[C@H](C)[C@@H]1NC(=O)[C@H]([C@@H](C)O)NC(=O)[C@H](Cc2cncn2C)NC(=O)[C@H](Cc2ccccc2)NC(=O)CSC[C@@H](C(=O)NCC(N)=O)NC(=O)[C@H](Cc2ccc(O)cc2)NC(=O)[C@H](Cc2c[nH]c3ccccc23)NC(=O)[C@H](Cc2ccc(O)cc2)NC(=O)[C@H](Cc2cncn2C)NC(=O)[C@H](Cc2ccccc2)NC(=O)C(C)(C)NC(=O)[C@H](CCCNC(=N)N)NC(=O)[C@H](CCCNC(=N)N)NC(=O)[C@H](CCCNC(=N)N)NC1=O [Compound 53] ({CH2CO}-F[His(π-Me)]TIRRR[Aib]F[His(π-Me)]YWYCG-NH2; thioether N-14) | 4 | 0.25 |
| CC[C@@H]1NC(=O)[C@H](Cc2c[nH]cn2)NC(=O)[C@H](Cc2ccccc2)N(C)C(=O)[C@H](CC)NC(=O)[C@H](CO)NC(=O)CNC(=O)[C@H](Cc2c[nH]cn2)NC(=O)[C@H](Cc2cccc3ccccc23)NC(=O)[C@H](C(C)C)NC(=O)[C@H](Cc2ccccc2)NC(=O)CSC[C@@H](C(=O)NCC(N)=O)NC(=O)[C@H](Cc2cncn2C)NC1=O [Compound 8, (3R,6S,9S,12S,15S,18S,21S,27S,30S, 33S,36S)-N-(2-amino-2-oxo-ethyl)-15,36-dibenzyl-9,18-diethyl-21-(hydroxymethyl)-12,27-bis(1H-imidazol-4-ylmethyl)-33-isopropyl-16-methyl-6-[(3-methylimidazol-4-yl)methyl]-30-(1-naphthylmethyl)-5,8,11,14,17,20,23,26,29,32,35,38-dodecaoxo-1-thia-4,7,10,13,16,19,22,25,28,31,34,37-dodecazacyclononatriacontane-3-carboxamide] ({CH2CO}-FV[1Nal]HGS[Abu][NMeF]H[Abu][His(π-Me)]CG-NH2; thioether N-12) | >32 | 4 |
| CC[C@H](C)[C@@H]1NC(=O)[C@H]([C@@H](C)O)NC(=O)[C@H](Cc2cncn2C)NC(=O)[C@H](Cc2ccccc2)NC(=O)CSC[C@@H](C(=O)NCC(N)=O)NC(=O)[C@H](Cc2ccc(O)cc2)NC(=O)[C@H](Cc2c[nH]c3ccccc23)NC(=O)[C@H](Cc2ccc(O)cc2)NC(=O)[C@H](CCCNC(=N)N)NC(=O)[C@H](Cc2ccccc2)NC(=O)C(C)(C)NC(=O)[C@H](CCCNC(=N)N)NC(=O)[C@H](CCCCN)NC(=O)[C@H](CCCNC(=N)N)NC1=O [Compound 52] ({CH2CO}-F[His(π-Me)]TIRKR[Aib]FRYWYCG-NH2; thioether N-14) | 1 | 0.125 |
| CC[C@@H]1NC(=O)[C@H](Cc2ccccc2)NC(=O)CSC[C@@H](C(=O)NCC(N)=O)NC(=O)[C@H](Cc2cncn2C)NC(=O)[C@H](CCCNC(=N)N)NC(=O)[C@H](Cc2cnc[nH]2)NC(=O)[C@H](Cc2ccc(O)cc2)N(C)C(=O)[C@H](CCCNC(=N)N)NC(=O)[C@H](CO)NC(=O)CNC(=O)[C@H](Cc2cnc[nH]2)NC(=O)[C@H](Cc2c[nH]c3ccccc23)NC1=O (racemic) [Compound 12] | 1 | 3.8137E−06 |
| CC[C@H](C)[C@@H]1NC(=O)C(C)(C)NC(=O)[C@H](Cc2cncn2C)NC(=O)[C@H](Cc2ccccc2)NC(=O)CSC[C@@H](C(=O)NCC(N)=O)NC(=O)[C@H](Cc2ccc(O)cc2)NC(=O)[C@H](Cc2c[nH]c3ccccc23)NC(=O)[C@H](Cc2ccc(O)cc2)NC(=O)[C@H](CCCNC(=N)N)NC(=O)[C@H](Cc2ccccc2)NC(=O)C(C)(C)NC(=O)[C@H](CCCNC(=N)N)NC(=O)[C@H](CCCCN)NC(=O)[C@H](CCCNC(=N)N)NC1=O [Compound 57] ({CH2CO}-F[His(π-Me)][Aib]IRKR[Aib]FRYWYCG-NH2; thioether N-14) | >32 | 2 |
| CC[C@H](C)[C@@H]1NC(=O)[C@H]([C@@H](C)O)NC(=O)[C@H](Cc2cncn2C)NC(=O)[C@H](Cc2ccccc2)NC(=O)CSC[C@@H](C(=O)NCC(N)=O)NC(=O)[C@H](Cc2ccc(O)cc2)NC(=O)[C@H](Cc2ccc(Cl)cc2)NC(=O)[C@H](Cc2ccc(O)cc2)NC(=O)[C@H](CCCNC(=N)N)NC(=O)[C@H](Cc2ccccc2)NC(=O)C(C)(C)NC(=O)[C@H](CCCNC(=N)N)NC(=O)[C@H](CCCCN)NC(=O)[C@H](CCCNC(=N)N)NC1=O [Compound 58] ({CH2CO}-F[His(π-Me)]TIRKR[Aib]FRY[Phe(4-Cl)]YCG-NH2; thioether N-14) | 2 | 0.25 |
| CC[C@@H]1NC(=O)[C@H](Cc2ccccc2)NC(=O)CSC[C@@H](C(=O)NCC(N)=O)NC(=O)[C@H](Cc2cncn2C)NC(=O)[C@H](CC)NC(=O)[C@H](Cc2c[nH]cn2)NC(=O)[C@H](Cc2ccccc2)N(C)C(=O)[C@H](CCCNC(=N)N)NC(=O)[C@H](CO)NC(=O)CNC(=O)[C@H](Cc2c[nH]cn2)NC(=O)[C@H](Cc2c[nH]c3ccccc23)NC1=O [Compound 4, (3R,6S,9S,12S,15S,18S,21S,27S,30S, 33S,36S)-N-(2-amino-2-oxo-ethyl)-15,36-dibenzyl-9,33-diethyl-18-(3-guanidinopropyl)-21-(hydroxymethyl)-12,27-bis(1H-imidazol-4-ylmethyl)-30-(1H-indol-3-ylmethyl)-16-methyl-6-[(3-methylimidazol-4-yl)methyl]-5,8,11,14,17,20,23,26,29,32,35,38-dodecaoxo-1-thia-4,7,10,13,16,19,22,25,28,31,34,37-dodecazacyclononatriacontane-3-carboxamide] ({CH2CO}-F[Abu]WHGSR[NMeF]H[Abu][His(π-Me)]CG-NH2; thioether N-12) | >32 | 0.128 |
